Assay results taken from patent US20110059982A1, “AZAINDOLE COMPOUNDS FOR TREATMENT OF CENTRAL NERVOUS SYSTEM DISORDERS” (MERCK PATENT GESELLSCHAFT MIT BESCHRANKTER HAFTUNG, priority 2008, published 2011).

Experiments:
[1] = biological target: T1, Norepinephrine uptake (Rattus norvegicus, UniProt Q63380); experiment: Norepinephrine uptake, [3H]NE as tracer; format: biochemical; conditions: [3H]NE tracer, protriptyline as reference; read-out: IC50 (nmol/L), Norepinephrine
T1 construct: from tissue
Method: Norepinephrine uptake was determined as described in the Perovic & Muller work with [^3H]NE as tracer and protriptyline as reference.

[2] = biological target: T2, 5-HT1A receptor (Homo sapiens, UniProt P08908); experiment: 5-HT1A binding assay, [3H]8-OH-DPAT as ligand; conditions: 8-OH-DPAT as reference; for IC50: read-out: IC50 (nmol/L), 5-HT1A
T2 sequence (P08908 1-422): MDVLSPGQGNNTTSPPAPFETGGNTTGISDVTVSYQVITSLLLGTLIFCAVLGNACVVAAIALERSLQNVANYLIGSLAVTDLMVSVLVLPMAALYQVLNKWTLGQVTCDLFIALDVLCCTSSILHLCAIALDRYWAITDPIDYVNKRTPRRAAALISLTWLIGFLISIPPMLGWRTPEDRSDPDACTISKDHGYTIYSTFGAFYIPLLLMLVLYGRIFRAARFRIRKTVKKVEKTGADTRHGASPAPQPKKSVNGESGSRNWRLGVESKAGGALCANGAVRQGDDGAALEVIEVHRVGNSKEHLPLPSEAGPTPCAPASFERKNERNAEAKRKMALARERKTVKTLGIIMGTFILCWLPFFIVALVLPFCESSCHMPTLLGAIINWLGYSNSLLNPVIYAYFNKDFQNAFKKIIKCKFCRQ
Method: Binding properties at the 5-HT1A receptor were determined by means of the 5-HT1A binding assay as described in the literature by Mulheron et al. (J. Biol. Chem. 1994, 269:12954-12962) with [^3H]8-OH-DPAT as ligand and 8-OH-DPAT as reference.

[3] = biological target: T3, Dopamine uptake (Rattus norvegicus, UniProt P23977); experiment: [3H]Dopamine uptake inhibition in crude synaptosomal preparation; format: biochemical; conditions: rat brain synaptosomal preparation, [3H]DA tracer, GBR12909 as reference; read-out: IC50 (nmol/L), Dopamine
T3 construct: A crude synaptosomal membrane preparation from various regions of rat brain was prepared; from tissue; host or cells: crude synaptosomal preparation from rat brain (Sprague-Dawley)
Method: Dopamine uptake inhibition was determined as described by Janowsky et al. (Neurochem. 1986, 46:1272-1276) with [^3H]DA as tracer and GBR12909 as reference.
[^3H]Dopamine uptake inhibition is as provided below:
Tissue preparation—A crude synaptosomal membrane preparation from various regions of rat brain was prepared as described by Berger et al. (Eur. J. Pharmacol. 1985, 107:289-290). Brain tissue from adult male Sprague-Dawley rats (150-200 g) was homogenized in 10 volumes of ice-cold sucrose (0.32 M) using a Teflon glass homogenizer, and centrifuged at 1000 g for 10 min. […] The final protein concentration was 100-200 μg protein/mL, as determined by the method of Lowry et al. (J. Biol. Chem. 1951, 193:265-275).
The uptake of [^3H]dopamine in a crude synaptosomal preparation was measured as described by Harris et al. (Life Sci. 1973, 13:303-312). […] The filters were rinsed three times with 4 mL of ice-cold buffer (Tris-HCl, 50 mM, pH 7.7, containing 120 mM NaCl) and the radioactivity remaining on the filters was measured by conventional liquid scintillation spectrometry. […]
Assay tubes contained 250 μL of the tissue preparation, 50 μL of [^3H]dopamine (40 nM) 200 μL of buffer or various uptake inhibitors, and 1.0 mL of Krebs-Ringer bicarbonate buffer (pH 7.4). […] Radioactivity remaining on the filters was measured by conventional liquid scintillation spectrometry.

[4] = biological target: T4, Serotonin reuptake (Rattus norvegicus, UniProt P31652); experiment: Serotonin re-uptake inhibition, synaptosomal, [3H]5-HT as tracer; format: biochemical; conditions: [3H]5-HT tracer, imipramine as reference, read-out: IC50 (nmol/L), Serotonin reuptake
T4 construct: from tissue
Method: Serotonin re-uptake inhibition was determined by means of synaptosomal re-uptake inhibition as described by Perovic & Muller et al. (Arzneim-Forsch. Drug. Res. 1995, 45:1145-1148) with [^3H]5-HT as tracer and imipramine as reference.

T3 sequence (P23977 whole entry): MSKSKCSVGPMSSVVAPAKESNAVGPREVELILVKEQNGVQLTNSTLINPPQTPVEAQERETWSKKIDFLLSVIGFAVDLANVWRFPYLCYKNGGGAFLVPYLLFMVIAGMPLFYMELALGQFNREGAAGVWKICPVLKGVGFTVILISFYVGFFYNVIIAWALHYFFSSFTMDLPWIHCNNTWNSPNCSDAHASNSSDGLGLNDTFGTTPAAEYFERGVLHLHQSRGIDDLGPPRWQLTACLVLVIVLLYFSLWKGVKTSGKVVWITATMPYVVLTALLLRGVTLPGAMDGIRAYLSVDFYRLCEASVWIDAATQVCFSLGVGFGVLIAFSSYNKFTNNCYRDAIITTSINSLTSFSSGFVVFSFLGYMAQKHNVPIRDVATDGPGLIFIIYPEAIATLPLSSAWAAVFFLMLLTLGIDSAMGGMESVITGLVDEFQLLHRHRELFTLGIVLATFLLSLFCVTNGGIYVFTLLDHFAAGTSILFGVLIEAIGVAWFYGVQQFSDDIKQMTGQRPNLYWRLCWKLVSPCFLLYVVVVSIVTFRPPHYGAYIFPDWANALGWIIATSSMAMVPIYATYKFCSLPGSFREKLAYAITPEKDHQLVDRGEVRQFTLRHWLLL
T1 sequence (Q63380 1-617): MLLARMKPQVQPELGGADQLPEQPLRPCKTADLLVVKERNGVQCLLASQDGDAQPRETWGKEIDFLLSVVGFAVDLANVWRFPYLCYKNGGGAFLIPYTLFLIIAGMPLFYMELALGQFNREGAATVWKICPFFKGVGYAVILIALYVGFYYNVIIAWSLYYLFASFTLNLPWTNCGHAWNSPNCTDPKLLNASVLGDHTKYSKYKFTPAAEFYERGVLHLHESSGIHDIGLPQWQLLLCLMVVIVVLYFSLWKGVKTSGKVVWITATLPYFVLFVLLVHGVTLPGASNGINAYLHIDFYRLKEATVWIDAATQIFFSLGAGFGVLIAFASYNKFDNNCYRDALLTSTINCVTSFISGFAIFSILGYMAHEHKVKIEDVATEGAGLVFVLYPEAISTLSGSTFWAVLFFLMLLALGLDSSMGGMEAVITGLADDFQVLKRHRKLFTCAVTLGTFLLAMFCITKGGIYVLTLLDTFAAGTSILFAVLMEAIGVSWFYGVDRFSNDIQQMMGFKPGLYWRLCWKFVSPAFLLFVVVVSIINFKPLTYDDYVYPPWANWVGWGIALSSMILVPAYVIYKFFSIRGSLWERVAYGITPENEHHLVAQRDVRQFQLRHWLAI
T4 sequence (P31652 whole entry): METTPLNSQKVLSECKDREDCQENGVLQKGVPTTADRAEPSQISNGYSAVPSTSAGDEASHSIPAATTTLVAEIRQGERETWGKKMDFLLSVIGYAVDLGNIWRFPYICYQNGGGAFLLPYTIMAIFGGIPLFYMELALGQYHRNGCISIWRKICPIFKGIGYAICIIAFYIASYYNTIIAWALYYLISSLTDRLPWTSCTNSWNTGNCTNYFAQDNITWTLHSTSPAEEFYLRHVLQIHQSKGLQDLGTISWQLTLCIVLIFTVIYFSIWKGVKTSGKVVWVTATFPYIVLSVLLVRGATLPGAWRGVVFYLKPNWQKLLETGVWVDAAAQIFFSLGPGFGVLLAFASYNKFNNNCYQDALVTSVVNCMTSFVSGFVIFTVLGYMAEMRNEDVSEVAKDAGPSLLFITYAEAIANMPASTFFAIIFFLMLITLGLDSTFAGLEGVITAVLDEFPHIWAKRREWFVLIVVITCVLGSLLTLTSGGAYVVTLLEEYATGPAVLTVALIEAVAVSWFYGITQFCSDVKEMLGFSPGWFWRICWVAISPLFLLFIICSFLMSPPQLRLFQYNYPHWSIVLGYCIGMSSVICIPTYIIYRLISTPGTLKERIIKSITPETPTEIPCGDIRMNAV

SMILES | IC50 [1] [nmol/L] | Ki [2] [nM] | IC50 [2] [nmol/L] | IC50 [3] [nmol/L] | IC50 [4] [nmol/L] | melting point [°C]
N#Cc1cnc2[nH]cc(CCCCN3CCN(c4ccc5oc(C(N)=O)cc5c4)CC3)c2c1 [Example 1, 5-{4-[4-(5-Cyano-1H-pyrrolo[2,3-b]pyridine-3-yl)-butyl]-piperazin-1-yl}-benzofuran-2-carboxylic acid amide] | 101 to 150 | 101 to 150 | 151 to 200 | > 200 | 51 to 100 | 
N#Cc1ccc2[nH]cc(CCCCN3CCN(c4ccc5oc(C(N)=O)cc5c4)CC3)c2n1 [Example 2, 5-{4-[4-(5-Cyano-1H-pyrrolo[3,2-b]pyridine-3-yl)-butyl]-piperazin-1-yl}-benzofuran-2-carboxylic acid amide] | 151 to 200 | 1 to 50 | 51 to 100 | > 200 | > 200 | 
N#Cc1cnc2[nH]cc(CCCCN3CCC(Oc4ccc5c(c4)OCCO5)CC3)c2c1 [Example 3, 3-{4-[4-(2,3-Dihydro-benzo[1,4]dioxin-6-yloxy)-piperidin-1-yl]-butyl}-1H-pyrrolo[2,3-b]pyridine-5-carbonitrile] |  |  |  |  |  | 240 to 242
